Organism: Rattus norvegicus
Test: DrugMatrix - Regimen: Daily Repeat
Format: toxicity, organism-based, Sprague-Dawley
Design: regimen Daily Repeat, gender Male, age 6-8 weeks
Conditions: in vivo, po, route oral GAVAGE, […]; for POTASSIUM / SODIUM / TOTAL BILIRUBIN / TOTAL PROTEIN / URIC ACID / ALANINE AMINOTRANSFERASE / ALBUMIN / ALKALINE PHOSPHATASE / ASPARTATE AMINOTRANSFERASE / BLOOD UREA NITROGEN / CARBON DIOXIDE / CHLORIDE / CHOLESTEROL / CREATINE PHOSPHOKINASE / CREATININE / GLUCOSE / LACTATE DEHYDROGENASE / LIPASE / PHOSPHORUS: tissue Plasma; for ABSOLUTE BASOPHIL / ABSOLUTE EOSINOPHIL / ABSOLUTE LYMPHOCYTE / ABSOLUTE MONOCYTE / ABSOLUTE SEGMENTED NEUTROPHIL / BASOPHIL / EOSINOPHIL / ERYTHROCYTE COUNT / HEMATOCRIT / HEMOGLOBIN / LEUKOCYTE COUNT / LYMPHOCYTE / MEAN CORPUSCULAR HEMOGLOBIN / MEAN CORPUSCULAR HEMOGLOBIN CONCENTRATION / MEAN CORPUSCULAR VOLUME / MONOCYTE / NEUTROPHIL / NUCLEATED RED BLOOD CELLS / PLATELET COUNT: tissue Blood
[1] = 9 mg/kg, 72 h, dose level M1, time 3 day
[2] = 9 mg/kg, 120 h, dose level M1, time 5 day
[3] = 36 mg/kg, 72 h, dose level High, time 3 day
[4] = 36 mg/kg, 120 h, dose level High, time 5 day

CS(=O)(=O)OCCCCOS(C)(=O)=O [BUSULFAN]
POTASSIUM [1]: 6.13 MEQ/L
SODIUM [1]: 143.63 MEQ/L
TOTAL BILIRUBIN [1]: 0.13 mg/dL
TOTAL PROTEIN [1]: 5.73 G/DL
URIC ACID [1]: 1.27 mg/dL
ABSOLUTE BASOPHIL [2]: 0 CELLS/uL
ABSOLUTE EOSINOPHIL [2]: 0 CELLS/uL
ABSOLUTE LYMPHOCYTE [2]: 6323.33 CELLS/uL
ABSOLUTE MONOCYTE [2]: 60 CELLS/uL
ABSOLUTE SEGMENTED NEUTROPHIL [2]: 150 CELLS/uL
BASOPHIL [2]: 0%
EOSINOPHIL [2]: 0%
ERYTHROCYTE COUNT [2]: 6.03 x10E6/uL
HEMATOCRIT [2]: 36.67%
HEMOGLOBIN [2]: 14.47 G/DL
LEUKOCYTE COUNT [2]: 6.53 x10E3/uL
LYMPHOCYTE [2]: 97%
MEAN CORPUSCULAR HEMOGLOBIN [2]: 24.03 pg
MEAN CORPUSCULAR HEMOGLOBIN CONCENTRATION [2]: 39.43 G/DL
MEAN CORPUSCULAR VOLUME [2]: 60.83 fL
MONOCYTE [2]: 0.67%
NEUTROPHIL [2]: 2.33%
NUCLEATED RED BLOOD CELLS [2]: 0 /100WBC
PLATELET COUNT [2]: 1101.33 x10E3/uL
ALANINE AMINOTRANSFERASE [2]: 48.67 u/L
ALBUMIN [2]: 4.4 G/DL
ALKALINE PHOSPHATASE [2]: 322 u/L
ASPARTATE AMINOTRANSFERASE [2]: 84.67 u/L
BLOOD UREA NITROGEN [2]: 8.33 mg/dL
CARBON DIOXIDE [2]: 33 mmol/L
CHLORIDE [2]: 99.33 MEQ/L
CHOLESTEROL [2]: 81.67 mg/dL
CREATINE PHOSPHOKINASE [2]: 189.67 u/L
CREATININE [2]: 0.3 mg/dL
GLUCOSE [2]: 133.33 mg/dL
LACTATE DEHYDROGENASE [2]: 120 u/L
LIPASE [2]: 11.33 u/L
PHOSPHORUS [2]: 9.3 mg/dL
POTASSIUM [2]: 6.08 MEQ/L
SODIUM [2]: 145.27 MEQ/L
TOTAL BILIRUBIN [2]: 0.13 mg/dL
TOTAL PROTEIN [2]: 6.33 G/DL
URIC ACID [2]: 0.77 mg/dL
ABSOLUTE BASOPHIL [3]: 0 CELLS/uL
ABSOLUTE EOSINOPHIL [3]: 0 CELLS/uL
ABSOLUTE LYMPHOCYTE [3]: 7116 CELLS/uL
ABSOLUTE MONOCYTE [3]: 0 CELLS/uL
ABSOLUTE SEGMENTED NEUTROPHIL [3]: 417.33 CELLS/uL
BASOPHIL [3]: 0%
EOSINOPHIL [3]: 0%
ERYTHROCYTE COUNT [3]: 5.94 x10E6/uL
HEMATOCRIT [3]: 37.13%
HEMOGLOBIN [3]: 14.47 G/DL
LEUKOCYTE COUNT [3]: 7.53 x10E3/uL
LYMPHOCYTE [3]: 94.33%
MEAN CORPUSCULAR HEMOGLOBIN [3]: 24.5 pg
MEAN CORPUSCULAR HEMOGLOBIN CONCENTRATION [3]: 39.07 G/DL
MEAN CORPUSCULAR VOLUME [3]: 62.67 fL
MONOCYTE [3]: 0%
NEUTROPHIL [3]: 5.67%
NUCLEATED RED BLOOD CELLS [3]: 0 /100WBC
PLATELET COUNT [3]: 1000.33 x10E3/uL
ALANINE AMINOTRANSFERASE [3]: 45.33 u/L
ALBUMIN [3]: 4.4 G/DL
ALKALINE PHOSPHATASE [3]: 316.33 u/L
ASPARTATE AMINOTRANSFERASE [3]: 72.67 u/L
BLOOD UREA NITROGEN [3]: 12 mg/dL
CARBON DIOXIDE [3]: 33.33 mmol/L
CHLORIDE [3]: 101.5 MEQ/L
CHOLESTEROL [3]: 110.33 mg/dL
CREATINE PHOSPHOKINASE [3]: 312.33 u/L
CREATININE [3]: 0.1 mg/dL
GLUCOSE [3]: 170.33 mg/dL
LACTATE DEHYDROGENASE [3]: 86.33 u/L
LIPASE [3]: 12.33 u/L
PHOSPHORUS [3]: 10.73 mg/dL
POTASSIUM [3]: 5.47 MEQ/L
SODIUM [3]: 147.05 MEQ/L
TOTAL BILIRUBIN [3]: 0.17 mg/dL
TOTAL PROTEIN [3]: 6.3 G/DL
URIC ACID [3]: 0.6 mg/dL
ABSOLUTE BASOPHIL [4]: 0 CELLS/uL
ABSOLUTE EOSINOPHIL [4]: 0 CELLS/uL
ABSOLUTE LYMPHOCYTE [4]: 3639 CELLS/uL
ABSOLUTE MONOCYTE [4]: 0 CELLS/uL
ABSOLUTE SEGMENTED NEUTROPHIL [4]: 61 CELLS/uL
BASOPHIL [4]: 0%
EOSINOPHIL [4]: 0%
ERYTHROCYTE COUNT [4]: 6.14 x10E6/uL
HEMATOCRIT [4]: 38.4%
HEMOGLOBIN [4]: 14.8 G/DL
LEUKOCYTE COUNT [4]: 3.7 x10E3/uL
LYMPHOCYTE [4]: 98.5%
MEAN CORPUSCULAR HEMOGLOBIN [4]: 24.15 pg
MEAN CORPUSCULAR HEMOGLOBIN CONCENTRATION [4]: 38.6 G/DL
MEAN CORPUSCULAR VOLUME [4]: 62.55 fL
MONOCYTE [4]: 0%
NEUTROPHIL [4]: 1.5%
NUCLEATED RED BLOOD CELLS [4]: 0 /100WBC
PLATELET COUNT [4]: 1040 x10E3/uL
ALANINE AMINOTRANSFERASE [4]: 36.5 u/L
ALBUMIN [4]: 4.35 G/DL
ALKALINE PHOSPHATASE [4]: 322.5 u/L
ASPARTATE AMINOTRANSFERASE [4]: 72 u/L
BLOOD UREA NITROGEN [4]: 7 mg/dL
CARBON DIOXIDE [4]: 28 mmol/L
CHLORIDE [4]: 100 MEQ/L
CHOLESTEROL [4]: 78 mg/dL
CREATINE PHOSPHOKINASE [4]: 216 u/L
CREATININE [4]: 0.13 mg/dL
GLUCOSE [4]: 154 mg/dL
LACTATE DEHYDROGENASE [4]: 72 u/L
LIPASE [4]: 10.5 u/L
PHOSPHORUS [4]: 9.25 mg/dL
POTASSIUM [4]: 5.75 MEQ/L
SODIUM [4]: 145.2 MEQ/L
TOTAL BILIRUBIN [4]: 0.1 mg/dL
TOTAL PROTEIN [4]: 6.35 G/DL
URIC ACID [4]: 0.5 mg/dL

Reference: ChEMBL document CHEMBL3885881, “DrugMatrix”
